Results: patent US7544512B2, “Method of producing insulinotropic GLP-1 (7-36) polypeptide and/or GLP-1 analogs” (Shanhai Hua Yi Bio-Tech Lab, priority 2001, dated 2009)

Legend:
Format in all cases: in vivo
blood glucose [1] = experiment: Effect on blood glucose level in glucose-loaded C57/BL/6J mice; details: C57/BL/6J mice fasted overnight, 200 μl of 40% glucose plus 2 μg peptide into abdominal cavity, 0, 30, 60, 120 min, FIG. 11
Experimental: Healthy C57/BL/6J mice were purchased from Shanghai Laboratory Animal Center of Chinese Academy of Sciences. The mice were divided into four groups with 6 mice in each group. Mice fasted overnight were injected by abdominal cavity. The placebo group were injected with 200 μl of 40% glucose solution, the testing group were injected with 200 μl of 40% glucose solution plus 2 μg of GLP-1 (7-36), the positive control group(I) were injected with 200 μl of 40% glucose solution plus 2 μg of GLP-1 (7-36)NH2 (Sigma), and the positive control group(II) were injected with 200 μl of 40% glucose solution plus 2 μg of GLP-1 (7-37) (Sigma). The moment when the animals received the injection was set as time zero. After the injection, 20 μl of blood sample were immediately drawn from optic sinus of each mouse with a heparin-treated capillary. The blood samples were immediately mixed with 300 μl of saline in a micro-centrifuge tube. The mixture was centrifuged at 3000 rpm to remove erythrocytes. The serum was used to measure serum glucose concentration. This procedure was repeated at the 30th, 60th and 120th minutes.
The serum blood glucose concentration was measured by a commercial kit (Shanghai Institute of Biological Products, Chinese Ministry of Health).

insulin secretion = experiment: Effect on insulin secretion in mice (serum insulin, radioimmunoassay); details: healthy C57/BL/6J mice, 2 μg injected into abdominal cavity, blood at 0, 5, 15, 30, 60 min, FIG. 9
Experimental: Healthy C57/BL/6J mice were purchased from the Shanghai Laboratory Animal Center of Chinese Academy of Sciences. The mice were divided into three groups with 6 mice in each group. The placebo group of mice received 200 μl of saline injected into their abdominal cavity, while the testing group received 2 μg of GLP-1 (7-36) and the positive control group received 2 μg of GLP-1 (7-36)NH2 (BACHEM). The moment when the animals received the injection was set as time zero. 50 μl of blood were drawn from the veins at angulus oculi with a graduated capillary which had been rinsed with heparin and then dried. The blood samples were subsequently drawn at 5, 15, 30 and 60 minutes. The blood samples were immediately mixed with 50 μl of saline in a micro-centrifuge tube. The mixture was centrifuged at 3000 rpm to remove erythrocytes. The serum was used to measure insulin concentration.
The radioimmunoassay kit (Shanghai Institute of Biological Products, Chinese Ministry of Health) for insulin was used to measure the effect of GLP-1 (7-36) on insulin secretion. […] This observation indicates the administration of either GLP-1 (7-36) or GLP-1 (7-36)NH2 enhances the secretion of insulin in mice.

blood glucose [2] = experiment: Comparison of reducing blood glucose effect in Kun Ming mice; details: fasted 4 hours, glucose 2 g/kg intraperitoneally, 50 ng/Kg peptide, 30 minutes; for Rate (reduction of blood glucose): versus control
Experimental: Kun Ming mice (40 in total, male, 23 g body weight/mouse) were divided into 4 groups. After fasting for 4 hours, each mouse was injected with glucose (2 g/kg body weight) intraperitoneally. Then mice in the testing group were rejected with 50 ng/Kg of GLP-1 (7-36), GLP-1 (7-36)NH2 (BACHEM) and GLP-1 (7-37)COOH (BACHEM) respectively, while mice in the control group were rejected with 0.9% NaCl saline. Blood sample was collected at the zero time and 30 minutes later for the analysis.

C-peptide secretion = experiment: Effect on C-peptide secretion in mice (serum C-peptide, radioimmunoassay); details: C57/BL/6J mice, 10 μg injected into abdominal cavity, FIG. 10
Experimental: As described in Example 14, C57/BL/6J mice were divided into two groups with the placebo group receiving 200 μl of saline injected into abdominal cavity and the testing group receiving 10 μg of GLP-1 (7-36). A radioimmunoassay kit (Shanghai Institute of Biological Products, Chinese Ministry of Health) for C-peptide was used to measure the effect of GLP-1 (7-36) on C-peptide secretion.

Substance | serum blood glucose concentration (blood glucose [1]) | serum insulin concentration (insulin secretion) | Blood Glucose (blood glucose [2]) [mmol/L] | Rate (reduction of blood glucose) (blood glucose [2]) [%] | serum C-peptide concentration (C-peptide secretion)
GLP-1 (7-36)NH2: natural GLP-1 form of 30 amino acid residues with C-terminal amidated; positive control from BACHEM or Sigma | no obvious rise from the normal level | significant increase | 8.69 | 36.8 | 
GLP-1 (7-37): natural GLP-1 form of 31 amino acid residues; positive control from Sigma or BACHEM (HAEGTFTSDVSSYLEGQAAKEFIAWLVKGRG; homo sapiens) | no obvious rise from the normal level |  | 6.77 | 50.7 | 
His-Ala-Glu-Gly-Thr-Phe-Thr-Ser-Asp-Val-Ser-Ser-Tyr-Leu-Glu-Gly-Gln-Ala-Ala-Lys-Glu-Phe-Ile-Ala-Trp-Leu-Val-Lys-Gly-Arg−OH (HAEGTFTSDVSSYLEGQAAKEFIAWLVKGR; homo sapiens) [GLP-1 (7-36)] | no obvious rise from the normal level | significant increase | 6.51 | 50.4 | significant increase
